Format in all cases: biochemical
What all share (details): recombinant human kinase domain, Caliper mobility shift

The target in one assay is JAK3 (Homo sapiens (Human), UniProt P52333). The experiment in a line: JAK Caliper enzyme assay at 1 mM ATP (JAK3). Here is the method: (§1) Compounds of the invention were evaluated by in vitro methods to determine their respective ability to inhibit the JAK kinases (TYK2, JAK1, JAK2, JAK3).
(§2) The human JAK inhibitory activity was determined by using a microfluidic assay to monitor phosphorylation of a synthetic peptide by the recombinant human kinase domain of each of the four members of the JAK family, JAK1, JAK2, JAK3 and TYK2. […] Each assay condition was optimized for enzyme concentration and room temperature incubation time to obtain a conversion rate of 20% to 30% phosphorylated peptide product. Reactions were terminated by the addition of stop buffer containing EDTA. Utilizing the LabChip 3000 mobility shift technology (Caliper Life Science), each assay reaction was sampled to determine the level of phosphorylation. This technology is separation-based, allowing direct detection of fluorescently labeled substrates and products. Separations are controlled by a combination of vacuum pressure and electric field strength optimized for each peptide substrate.
(§3) JAK Caliper Enzyme Assay at 1 mM ATP
(§4) Compounds were added to a 384-well plate. Reaction mixtures contained 10 mM HEPES, pH 7.4, 10 mM MgCl2, 0.01% BSA, 0.0005% Tween 20, 1 mM ATP and 1 μM peptide substrate. […] The assays were initiated by the addition of 20 nM JAK1, 1 nM JAK2, 1 nM JAK or 1 nM TYK2 enzyme and were incubated at room temperature for three hours for JAK1, 60 minutes for JAK2, 75 minutes for JAK3 or 135 minutes for TYK2. Enzyme concentrations and incubation times were optimized for each new enzyme preps and were modified slightly over time to ensure 20% to 30% phosphorylation. The assays were stopped with 15 μL of 180 mM HEPES, pH 7.4, 20 mM EDTA, and 0.2% Coating Reagent 3. The assay plates were placed on a Caliper Life Science LC3000 instrument, and each well was sampled using appropriate separation conditions to measure the unphosphorylated and phosphorylated peptide.
(§5) The data was collected using the HTS Well Analyzer software from Caliper Life Sciences. The data output for data analysis is the percent product converted calculated on peak height (Equation 1). % product converted=100*((product)/(product+substrate)) Equation 1: […]
(§6) The percent effect at each compound concentration was calculated based on the positive and negative control well contained within each assay plate (Equation 2). […] The negative control wells contained DMSO alone (at the same concentration as the compound wells) that was used to set the baseline activity in the assay (i.e., uninhibited JAK1, JAK2, JAK3 or TYK2). % effect=100*((sample well−negative control)/(positive control-negative control)) Equation 2: The percent effect was plotted against the compound concentration compound.

The target in a further assay is JAK1 (Homo sapiens (Human), UniProt P23458). The experiment in a line: JAK Caliper enzyme assay at 1 mM ATP (JAK1). Here is the method:
Compounds of the invention were evaluated by in vitro methods to determine their respective ability to inhibit the JAK kinases (TYK2, JAK1, JAK2, JAK3). The human JAK inhibitory activity was determined by using a microfluidic assay to monitor phosphorylation of a synthetic peptide by the recombinant human kinase domain of each of the four members of the JAK family, JAK1, JAK2, JAK3 and TYK2. […] Reactions were terminated by the addition of stop buffer containing EDTA. Utilizing the LabChip 3000 mobility shift technology (Caliper Life Science), each assay reaction was sampled to determine the level of phosphorylation. This technology is separation-based, allowing direct detection of fluorescently labeled substrates and products. Separations are controlled by a combination of vacuum pressure and electric field strength optimized for each peptide substrate. […] Compounds were added to a 384-well plate. […] Enzyme concentrations and incubation times were optimized for each new enzyme preps and were modified slightly over time to ensure 20% to 30% phosphorylation. […] The assay plates were placed on a Caliper Life Science LC3000 instrument, and each well was sampled using appropriate separation conditions to measure the unphosphorylated and phosphorylated peptide. The data was collected using the HTS Well Analyzer software from Caliper Life Sciences. […] The percent effect at each compound concentration was calculated based on the positive and negative control well contained within each assay plate (Equation 2). […] The percent effect was plotted against the compound concentration compound. […] Where max is the maximum asymptote (complete inhibition), min is the minimum asymptote (no inhibition) and s is the slope factor.

Another assay concerns the target JAK2 (Homo sapiens (Human), UniProt O60674). The experiment in a line: JAK Caliper enzyme assay at 1 mM ATP (JAK2). Here is the method:
as §1, §2, §3, §4, §5, §6

The next assay has as its target TYK2 (Homo sapiens (Human), UniProt P29597). The experiment in a line: JAK Caliper enzyme assay at 1 mM ATP (TYK2). The procedure:
as §1, §2, §3, §4, §5, §6

Each structure is given as a SMILES string.

Chain of JAK2 (O60674 849-1124): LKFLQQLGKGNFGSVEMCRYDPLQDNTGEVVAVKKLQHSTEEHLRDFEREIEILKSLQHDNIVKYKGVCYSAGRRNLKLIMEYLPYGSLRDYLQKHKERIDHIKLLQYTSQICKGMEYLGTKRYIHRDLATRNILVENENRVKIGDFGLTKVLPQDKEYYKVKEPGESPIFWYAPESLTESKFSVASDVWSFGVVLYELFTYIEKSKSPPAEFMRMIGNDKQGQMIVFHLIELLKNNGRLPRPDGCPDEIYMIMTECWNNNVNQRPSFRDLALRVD
Chain of JAK1 (P23458 875-1153): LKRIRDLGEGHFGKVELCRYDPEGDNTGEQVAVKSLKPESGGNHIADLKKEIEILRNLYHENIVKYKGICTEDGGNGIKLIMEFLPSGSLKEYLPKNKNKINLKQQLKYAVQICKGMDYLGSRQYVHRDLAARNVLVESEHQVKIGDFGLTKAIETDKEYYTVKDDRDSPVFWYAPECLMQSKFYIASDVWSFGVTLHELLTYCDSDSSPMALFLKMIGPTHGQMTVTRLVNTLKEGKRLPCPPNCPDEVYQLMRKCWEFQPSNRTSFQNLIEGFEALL
Chain of TYK2 (P29597 897-1176): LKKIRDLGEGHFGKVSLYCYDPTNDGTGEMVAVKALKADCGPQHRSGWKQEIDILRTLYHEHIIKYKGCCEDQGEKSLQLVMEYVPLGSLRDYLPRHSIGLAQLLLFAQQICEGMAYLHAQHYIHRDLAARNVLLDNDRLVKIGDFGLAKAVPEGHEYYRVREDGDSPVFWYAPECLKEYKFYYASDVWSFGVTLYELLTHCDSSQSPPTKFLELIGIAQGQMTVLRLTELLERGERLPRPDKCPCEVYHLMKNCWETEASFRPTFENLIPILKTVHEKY
Chain of JAK3 (P52333 822-1111): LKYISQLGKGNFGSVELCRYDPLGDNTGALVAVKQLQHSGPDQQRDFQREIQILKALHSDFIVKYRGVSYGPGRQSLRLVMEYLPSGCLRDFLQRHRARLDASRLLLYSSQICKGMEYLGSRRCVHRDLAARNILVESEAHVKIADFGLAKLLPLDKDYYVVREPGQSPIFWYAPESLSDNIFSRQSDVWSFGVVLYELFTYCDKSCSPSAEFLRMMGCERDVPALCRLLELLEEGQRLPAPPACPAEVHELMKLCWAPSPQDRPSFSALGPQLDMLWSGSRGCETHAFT

As for `Cn1cc(-c2cn3nccc3c(-c3cnn([C@]4(CC#N)C[C@@H](C#N)C4)c3)n2)nn1` [Example 33, (1r,3r)-3-(Cyanomethyl)-3-(4-(6-(1-methyl-1H-1,2,3-triazol-4-yl)pyrazolo[1,5-a]pyrazin-4-yl)-1H-pyrazol-1-yl)cyclobutane-1-carbonitrile], the IC50 is above 10000 nM on JAK3, 8720 nM on JAK1, 444 nM at JAK2 and 52 nM at TYK2.

In the case of `Cn1cc(-c2cn3nccc3c(-c3cnn([C@]4(CC#N)C[C@@H](C#N)C4)c3)n2)c(CO)n1` [Example 22, (1r,3r)-3-(Cyanomethyl)-3-(4-(6-(3-(hydroxymethyl)-1-methyl-1H-pyrazol-4-yl)pyrazolo[1,5-a]pyrazin-4-yl)-1H-pyrazol-1-yl)cyclobutane-1-carbonitrile], the IC50 at JAK3 is above 10000 nM; at JAK1 it was 2540 nM; at JAK2, 127 nM; on TYK2, 30 nM.

`Cn1cc(-c2cn3nccc3c(-c3cnn(C4(CC#N)CCC4)c3)n2)cn1` [Example 4, 2-(1-(4-(6-(1-Methyl-1H-pyrazol-4-yl)pyrazolo[1,5-a]pyrazin-4-yl)-1H-pyrazol-1-yl)cyclobutyl)acetonitrile]: the IC50 on JAK3 was above 10000 nM; at JAK1, 1340 nM; at JAK2 it was 141 nM; at TYK2, 55 nM.

As for `Cn1cc(-c2cn3nccc3c(-c3cnn([C@]4(CC#N)C[C@@](C)(C#N)C4)c3)n2)cn1` [Example 35, (1r,3r)-3-(Cyanomethyl)-1-methyl-3-(4-(6-(1-methyl-1H-pyrazol-4-yl)pyrazolo[1,5-a]pyrazin-4-yl)-1H-pyrazol-1-yl)cyclobutane-1-carbonitrile], the IC50 at JAK3 was above 10000 nM; at JAK1, 1920 nM; at JAK2, 268 nM; on TYK2, 136 nM.

Turning to `Cn1cc(-c2cn3nccc3c(-c3cnn([C@]4(CC#N)C[C@](C)(C#N)C4)c3)n2)cn1` [Example 34, (1s,3s)-3-(Cyanomethyl)-1-methyl-3-(4-(6-(1-methyl-1H-pyrazol-4-yl)pyrazolo[1,5-a]pyrazin-4-yl)-1H-pyrazol-1-yl)cyclobutane-1-carbonitrile], the IC50 is 3260 nM on JAK3, 96 nM on JAK1, 19 nM on JAK2 and 11 nM at TYK2.

Turning to `Cc1cc(-c2cn3nccc3c(-c3cnn([C@]4(CC#N)C[C@@H](C#N)C4)c3)n2)n[nH]1` [Example 26, (1r,3r)-3-(Cyanomethyl)-3-(4-(6-(5-methyl-1H-pyrazol-3-yl)pyrazolo[1,5-a]pyrazin-4-yl)-1H-pyrazol-1-yl)cyclobutane-1-carbonitrile], the IC50 is above 10000 nM on JAK3, 713 nM on JAK1, 158 nM on JAK2 and 21 nM at TYK2.

Take `CO[C@H]1C[C@](CC#N)(n2cc(-c3nc(-c4cc(N)n(C)n4)cn4nccc34)cn2)C1` [Example 24, 2-((1r,3s)-1-(4-(6-(5-Amino-1-methyl-1H-pyrazol-3-yl)pyrazolo[1,5-a]pyrazin-4-yl)-1H-pyrazol-1-yl)-3-methoxycyclobutyl)acetonitrile]: the half-maximal inhibitory concentration (IC50) is above 10000 nM on JAK3, 3550 nM on JAK1, 432 nM on JAK2 and 25 nM at TYK2.

On to `CO[C@H]1C[C@](CC#N)(n2cc(-c3nc(-c4cc(CO)[nH]n4)cn4nccc34)cn2)C1` [Example 28, 2-((1r,3s)-1-(4-(6-(5-(Hydroxymethyl)-1H-pyrazol-3-yl)pyrazolo[1,5-a]pyrazin-4-yl)-1H-pyrazol-1-yl)-3-methoxycyclobutyl)acetonitrile], for which the IC50 at JAK3 was above 10000 nM; on JAK1, 1360 nM; on JAK2, 249 nM; on TYK2, 27 nM.

Take `N#CCC1(n2cc(-c3nc(-c4cc(CO)[nH]n4)cn4nccc34)cn2)CN(CC2CC2)C1` [Example 2, 2-(1-(Cyclopropylmethyl)-3-(4-(6-(5-(hydroxymethyl)-1H-pyrazol-3-yl)pyrazolo[1,5-a]pyrazin-4-yl)-1H-pyrazol-1-yl)azetidin-3-yl)acetonitrile]: the IC50 on JAK3 is above 10000 nM; on JAK1 it was 1060 nM; at JAK2, 299 nM; on TYK2 it was 62 nM.

As for `Cc1nn([C@]2(CC#N)C[C@@H](C#N)C2)cc1-c1nc(-c2cnn(C)c2)cn2nccc12` [Example 21, (1r,3r)-3-(Cyanomethyl)-3-(3-methyl-4-(6-(1-methyl-1H-pyrazol-4-yl)pyrazolo[1,5-a]pyrazin-4-yl)-1H-pyrazol-1-yl)cyclobutane-1-carbonitrile], the IC50 on JAK3 is above 10000 nM; at JAK1, 1290 nM; on JAK2, 109 nM; on TYK2, 34 nM.

`Cn1cc(-c2cn3nccc3c(-c3cnn([C@]4(CC#N)C[C@@H](c5ccn[nH]5)C4)c3)n2)cn1` [Example 18, 2-((1r,3r)-1-(4-(6-(1-Methyl-1H-pyrazol-4-yl)pyrazolo[1,5-a]pyrazin-4-yl)-1H-pyrazol-1-yl)-3-(1H-pyrazol-5-yl)cyclobutyl)acetonitrile]: the IC50 at JAK3 stood at 10000 nM; at JAK1, 1080 nM; at JAK2, 206 nM; on TYK2 it was 47 nM.

The values are drawn from patent publication US10144738B2, “Pyrazolo[1,5-A]PYRAZIN-4-YL derivatives” (Pfizer Inc., priority 2016, dated 2018).
